Laboratory results as given in the NIST ThermoML archive (doi:10.1016/j.fluid.2004.12.007).
± gives the expanded uncertainty stated by the source. Blank lines part the entries; values can stand above or below the compound they belong to.

Details: Liquid; for mass density: 298.15 K, 101.33 kPa

mass density: 847.51 ± 1.1 kg/m3
vapor or sublimation pressure (313.75 K): 95.96 ± 0.75 kPa
vapor or sublimation pressure (315.25 K): 101.3 ± 0.8 kPa
SMILES: COCOC [dimethoxymethane]

mass density: 735.4 ± 0.97 kg/m3
vapor or sublimation pressure (326.55 K): 95.96 ± 0.64 kPa
vapor or sublimation pressure (328.35 K): 101.3 ± 0.6 kPa
SMILES: COC(C)(C)C [2-methoxy-2-methylpropane]

mass density: 718.14 ± 0.95 kg/m3
vapor or sublimation pressure (339.95 K): 95.96 ± 0.8 kPa
vapor or sublimation pressure (341.35 K): 101.3 ± 0.8 kPa
SMILES: CC(C)OC(C)C [diisopropyl ether]

mass density: 687.72 ± 0.9 kg/m3
vapor or sublimation pressure (370.45 K): 95.96 ± 0.59 kPa
vapor or sublimation pressure (372.45 K): 101.3 ± 0.6 kPa
SMILES: CC(C)CC(C)(C)C [2,2,4-trimethylpentane]
